Measured values from patent US20240076297A1, “ADENOSINE A2A AND A2B RECEPTOR DUAL ANTAGONISTS FOR IMMUNO-ONCOLOGY” (Merck Sharp & Dohme LLC, priority 2020, published 2024).

Target: human A2A adenosine receptor (Homo sapiens (Human), UniProt P29274)
Test: A2A binding affinity using SPA, Method (B)
Conditions: [3H] SCH58261, A2A receptor-expressing membranes
Text: Method (A) describes the procedure used to measure A2A binding affinity using radioligand binding. Method (B) describes the procedure used to measure A2A binding affinity using SPA technology. The method used to measure A2B binding affinity is also described below. The method used to determine the A2A IC50 value reported for each compound in the table is indicated next to the reported value. The A2B IC50 value measured using the A2B binding affinity assay is shown in the table next to the compound under the corresponding A2A value.
The A2A receptor affinity binding assay measured the amount of binding of a tritiated ligand with high affinity for the A2A adenosine receptor to membranes made from HEK293 or CHO cells recombinantly expressing the human A2A adenosine receptor, in the presence of varying concentrations of a compound of the invention. The data were generated using either filtration binding or a homogenous scintillation proximity assay (SPA).
Method (B): Measurement of A2A Binding Affinity Using SPA
Binding affinity using SPA was conducted as follows. Test compounds (50 nL) were dispensed into individual wells of a 384-well OptiPlate™ well (Perkin Elmer) by Echo® acoustic liquid transfer (Labcyte). 20 μL of 1.25 nM [^3H] SCH58261 ((7-(2-phenylethyl)-5-amino-2-(2-furyl)-pyrazolo-[4,3-e]-1,2,4-triazolo[1,5-c]pyrimidine)) in DPBS assay buffer (Dulbecco's phosphate buffered saline without calcium and magnesium, ThermoFisher Scientific, Cat. No. A1285601) supplemented with 10 mM MgCl2 was added. A2A receptor-expressing membranes were incubated with 20 μg/mL adenosine deaminase (Roche, Cat. No. 10 102 105 001) for 15 min at room temperature. The receptor-expressing membranes were then combined with wheat germ agglutinin-coated yttrium silicate SPA beads (GE Healthcare, Cat. No. RPNQ0023) in a ratio of 1:1000 (w/w) and incubated for 30 min at room temperature. 30 μL of the membrane/bead mixture (0.25 μg and 25 μg per well respectively) were added to the 384-well OptiPlate™ well. To define total and non-specific binding, wells containing 1% DMSO or 1 μM CGS15943 (Tocris Bioscience, Cat. No. 1699) respectively were also included in the experiment. The plate was incubated for 1 h at room temperature with agitation. The assay plate was then incubated for an h to allow the beads to settle before data were collected using a TopCount® (Perkin Elmer) scintillation counter. After normalization to total and non-specific binding, the percent effect at each compound concentration was calculated. The plot of percent effect versus the log of compound concentration was analyzed electronically using a 4-parameter logistic fit based on the Levenberg-Marquardt algorithm to generate IC50 values.

Sequence of human A2A adenosine receptor (P29274 whole entry): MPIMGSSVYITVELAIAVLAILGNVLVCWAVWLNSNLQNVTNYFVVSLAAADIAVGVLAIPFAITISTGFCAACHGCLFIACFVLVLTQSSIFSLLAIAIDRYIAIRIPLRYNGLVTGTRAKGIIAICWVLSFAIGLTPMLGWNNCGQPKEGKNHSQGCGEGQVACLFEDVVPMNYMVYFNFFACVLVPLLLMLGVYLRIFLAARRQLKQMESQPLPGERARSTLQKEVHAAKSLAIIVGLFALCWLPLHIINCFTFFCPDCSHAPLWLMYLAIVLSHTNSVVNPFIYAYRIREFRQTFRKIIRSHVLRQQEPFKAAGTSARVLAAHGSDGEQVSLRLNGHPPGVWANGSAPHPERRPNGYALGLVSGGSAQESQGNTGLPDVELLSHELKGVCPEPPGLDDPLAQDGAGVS

IC50 [nM] | Compound
4.6 | COc1cccc2c1nc(N)n1nc(CO[C@@H](C)c3ccc(F)cc3)nc21 [Example 4.7, (S)-2-((1-(4-fluorophenyl)ethoxy)methyl)-7-methoxy-[1,2,4]triazolo[1,5-c]quinazolin-5-amine]
8.4 | COc1cccc2c1nc(N)n1nc(CCCSc3ccc(C(F)(F)F)cc3)nc21 [Example 1.2, 7-methoxy-2-(3-((4-(trifluoromethyl)phenyl)thio)propyl)-[1,2,4]triazolo[1,5-c]quinazolin-5-amine]
2.9 | COc1cccc2c1nc(N)n1nc(COCc3csc4ccccc34)nc21 [Example 4.8, 2-((benzo[b]thiophen-3-ylmethoxy)methyl)-7-methoxy-[1,2,4]triazolo[1,5-c]quinazolin-5-amine]
15.5 | COc1cccc2c1nc(N)n1nc(CCCCl)nc21 [Example 1.1, 2-(3-chloropropyl)-7-methoxy-[1,2,4]triazolo[1,5-c]quinazolin-5-amine]
